# In patent publication US20090118331A1, “Use of Lobeline Epimers in the Treatment of Central Nervous System Diseases, Pathologies, and Drug Abuse” (priority 2007, published 2009):
# “And” between values parts separate entries of the source, which are not always exact repeats. Equal entries are not always repeated.
# Tests used:
# [1] = Pharmacokinetics of lobeline and epimer in human subjects after sublingual lobeline administration (7.5, 15, 30 mg); details: for CL/F (extravascular clearance): epimer
# Description: The pharmacokinetics of lobeline and lobeline epimer were examined in eight human subjects (Sub) after sublingual lobeline administration.
# [2] = Lobeline epimerization in pH 7.4 phosphate buffer control; details: after 2 hours, with impurity
# Experimental: In order to determine the tendency of lobeline to undergo epimerization in the HEPES buffer employed in the 25° C. [^3H]DTBZ binding study and the 37° C. VMAT2 uptake studies previously described, analogous solution epimerization experiments were conducted using the corresponding conditions for each individual assay. […] As this dynamic phenomenon occurs, the ratio of lobeline to lobeline epimer in solution naturally changes over time. Further, depending upon the solution conditions, the rate and extent of epimerization may vary; thus, a ratio of lobeline to epimer, if achieved, may occur at various time points. After 2 hours, the 25° C. […] The epimerization of lobeline in the 37° C.
# [3] = Lobeline conversion to epimer in deionized water (HPLC); assay type: physicochemical
# Experimental: Extensive in vitro studies on the epimerization of lobeline were conducted in a variety of aqueous media. […] The concentration of the lobeline solution (500 mL) was ca. 0.5 mg/mL, and 1.5 mL aliquot parts were removed in triplicate at each time point and analyzed by HPLC. Corresponding pH measurements were performed with a Coming Model 240 pH meter.
# [4] = Lobeline conversion to epimer in the buffer system used at 37° C. in the VMAT2 uptake study (HPLC); assay type: physicochemical; details: for Epimer %: VMAT2 uptake buffer, 37° C.
# [5] = epimer in plasma, individual human subjects, sublingual lobeline 7.50 mg
# [6] = epimer in plasma, individual human subjects, sublingual lobeline 15.0 mg
# [7] = epimer in plasma, individual human subjects, sublingual lobeline 30.0 mg
# [8] = individual human subjects, sublingual lobeline 7.50 mg
# [9] = individual human subjects, sublingual lobeline 15.0 mg
# [10] = individual human subjects, sublingual lobeline 30.0 mg
smiles,measurement,setting,value
"CN1[C@H](CC(=O)c2ccccc2)CCC[C@H]1C[C@H](O)c1ccccc1 (single isomer, unassigned; epimer 2) [Epimer, 2-[6S-(2S-hydroxy-2-phenyl-ethyl)-1-methyl-piperidin-2S-yl]-1-phenyl-ethanone]",dose linearity of Cmax and CL/F,"[1]; dose range from 7.5 to 30 mg, sublingual, human",Linear kinetics
same,AUC(0-∞),[1]; [5],11.92 ng·h/mL
same,AUCext (percent of AUC(0-∞) determined by extrapolation),[1]; [5],40.22% and 37.47% and 21.02% and 13.37% and 29.10% and 11.02% and 21.05% and 22.14%
same,Tlast (time of last measurable plasma concentration),[1]; [5],2.00 hr and 3.00 hr (4×) and 6.00 hr and 12.00 hr and 4.00 hr
same,λz (terminal exponential rate constant),[1]; [5],0.6868 h⁻¹ and 0.3858 h⁻¹ and 0.6119 h⁻¹ and 0.3882 h⁻¹ and 0.531 h⁻¹ and 0.2004 h⁻¹ and 0.6101 h⁻¹ and 0.489 h⁻¹
same,AUC(0-∞),[1]; [6],24.30 ng·h/mL
same,AUCext (percent of AUC(0-∞) determined by extrapolation),[1]; [6],10.70% and 12.80% and 22.39% and 5.75% and 10.95% and 14.68% and 8.64% and 8.10%
same,Tlast (time of last measurable plasma concentration),[1]; [6],4.17 hr and 4.00 hr (3×) and 8.00 hr and 11.00 hr and 4.03 hr and 6.00 hr
same,λz (terminal exponential rate constant),[1]; [6],0.6055 h⁻¹ and 0.6196 h⁻¹ and 0.4338 h⁻¹ and 0.3591 h⁻¹ and 0.684 h⁻¹ and 0.1908 h⁻¹ and 0.7266 h⁻¹ and 0.5175 h⁻¹
same,AUC(0-t),[1]; [7],83.89 ng·h/mL and 20.12 ng·h/mL and 87.17 ng·h/mL
same,AUCext (percent of AUC(0-∞) determined by extrapolation),[1]; [7],3.89% and 10.44% and 5.56% and 15.37% and 11.12% and 3.26% and 7.85% and 5.01%
same,Tlast (time of last measurable plasma concentration),[1]; [7],6.00 hr (2×) and 4.00 hr (3×) and 8.00 hr (2×) and 22.75 hr
same,λz (terminal exponential rate constant),[1]; [7],0.6184 h⁻¹ and 0.6931 h⁻¹ and 0.5281 h⁻¹ and 0.25 h⁻¹ and 0.7194 h⁻¹ and 0.1513 h⁻¹ and 0.8194 h⁻¹ and 0.3741 h⁻¹
same,CL/F (extravascular clearance),[1]; [8],282.7 mL/min/kg and 110.1 mL/min/kg and 240.7 mL/min/kg and 70.7 mL/min/kg and 159.2 mL/min/kg and 17.4 mL/min/kg and 225.5 mL/min/kg and 144.2 mL/min/kg
same,CL/F (extravascular clearance),[1]; [9],188.2 mL/min/kg and 120.8 mL/min/kg and 161.7 mL/min/kg and 56.2 mL/min/kg and 175.6 mL/min/kg and 14.5 mL/min/kg and 180.2 mL/min/kg and 97.3 mL/min/kg
same,CL/F (extravascular clearance),[1]; [10],153.7 mL/min/kg and 184.5 mL/min/kg and 146.9 mL/min/kg and 55.5 mL/min/kg and 285.9 mL/min/kg and 13.7 mL/min/kg and 259.4 mL/min/kg and 74.9 mL/min/kg
same,ratio of the cumulative amount of urinary epimer to lobeline,"[1]; human subjects, sublingual lobeline",approximately 0.5
same,Combined urinary excretion of lobeline and epimer,"[1]; human, in vivo",≤ 0.5%
same,AUC(0-inf),"[1]; human, in vivo, 7.5 mg, epimer in plasma, individual human subjects, sublingual lobeline 7.50 mg",13.2 ng·h/mL
same,AUC(0-inf),"[1]; human, in vivo, 15 mg, epimer in plasma, individual human subjects, sublingual lobeline 15.0 mg",17.3 ng·h/mL
same,AUC(0-inf),"[1]; human, in vivo, 30 mg, epimer in plasma, individual human subjects, sublingual lobeline 30.0 mg",91.8 ng·h/mL
same,half-life,"[1]; human, in vivo, 30 mg, Terminal exponential phase half-life (T1/2), average",~1.7 h
same,half-life,"[1]; human, in vivo, 30 mg, Terminal exponential phase half-lives (T1/2 values), range",1 to 5 h
same,Tmax,"[1]; human, in vivo, 30 mg, Tmax values, range",0.25 to 3 h
same,Tmax,"[1]; human, in vivo, 30 mg, Tmax, average",1.3 h
same,half-life,"[1]; human, in vivo, mean T1/2 values, human subjects, sublingual lobeline",~2 h
same,ratio of epimer to lobeline in plasma (Cmax and area under the curve; x to 1),"[1]; humans receiving sublingual lobeline 7.5, 15 and 30 mg",8-10 and 8 to 10
same,AUC(0-∞) Ratio (Epi/Lob),[1]; [8],8.23 and 7.66 and 4.64 and 8.82 and 4.97 and 10.29 and 6.66 and 7.29
same,AUC(0-∞) Ratio (Epi/Lob),[1]; [9],10.60 and 7.17 and 8.44 and 9.79 and 6.74 and 12.94 and 6.63 and 10.97
same,AUC(0-∞) Ratio (Epi/Lob),[1]; [10],11.77 and 6.33 and 8.63 and 10.30 and 6.07 and 11.84 and 9.02 and 11.44
same,component content of solution,"[2]; pH 7.4 phosphate buffer control, same temperature as 25° C. binding buffer",35%
same,component content of solution,[2]; phosphate buffer control for the 37° C. VMAT2 uptake buffer,36%
same,% Epimer (Mean ± SD),"[3]; Solution 1 (Lobeline in “fresh” DI Water), time 0, pH 6.02",0.83%
same,% Epimer (Mean ± SD),"[3]; Solution 1 (“fresh” DI Water), 15 min, pH 6.03-6.24",0.83 ± 0.054%
same,% Epimer (Mean ± SD),"[3]; Solution 1 (“fresh” DI Water), 30 min, pH 6.02-6.24",0.99 ± 0.164%
same,% Epimer (Mean ± SD),"[3]; Solution 1 (“fresh” DI Water), 45 min, pH 6.13-6.37",0.95 ± 0.144%
same,% Epimer (Mean ± SD),"[3]; Solution 1 (“fresh” DI Water), 1 h, pH 6.26-6.52",1.00 ± 0.196%
same,% Epimer (Mean ± SD),"[3]; Solution 1 (“fresh” DI Water), 80 min, pH 6.19-6.50",1.46 ± 0.112%
same,% Epimer (Mean ± SD),"[3]; Solution 1 (“fresh” DI Water), 100 min, pH 6.16-6.50",1.50 ± 0.139%
same,% Epimer (Mean ± SD),"[3]; Solution 1 (“fresh” DI Water), 2 h, pH 5.63-5.88",1.58 ± 0.599%
same,% Epimer (Mean ± SD),"[3]; Solution 2 (Lobeline in “8-h” DI Water), time 0, pH 7.87",1.03%
same,% Epimer (Mean ± SD),"[3]; Solution 2 (“8-h” DI Water), 15 min, pH 7.78-8.21",0.66 ± 0.273%
same,% Epimer (Mean ± SD),"[3]; Solution 2 (“8-h” DI Water), 30 min, pH 7.58-7.85",0.52 ± 0.214%
same,% Epimer (Mean ± SD),"[3]; Solution 2 (“8-h” DI Water), 45 min, pH 7.66-7.68",0.65 ± 0.056%
same,% Epimer (Mean ± SD),"[3]; Solution 2 (“8-h” DI Water), 1 h, pH 6.84-7.11",0.80 ± 0.087%
same,% Epimer (Mean ± SD),"[3]; Solution 2 (“8-h” DI Water), 80 min, pH 6.53-6.79",0.90 ± 0.150%
same,% Epimer (Mean ± SD),"[3]; Solution 2 (“8-h” DI Water), 100 min, pH 6.24-6.51",1.01 ± 0.207%
same,% Epimer (Mean ± SD),"[3]; Solution 2 (“8-h” DI Water), 2 h, pH 6.21-6.49",1.22 ± 0.257%
same,ratio of epimer to lobeline obtained in vitro,[3]; in vitro with water at pH 7,approximately 0.5
same,change in epimer concentration,"[3]; lobeline dissolved in deionized water, over a 2-h period at 25° C.",< 1%
same,component content of solution,"[4]; 37° C. uptake buffer with ATP-Mg2+ cofactor reduced from 2 mM to 0.4 mM, after 2 hours, with impurity",33%
same,final component concentration (as a function of the area under the curve),"[4]; VMAT2 uptake buffer (HEPES), 2 hour incubation at 37° C.",30%
same,Epimer %,"[4]; T0, sample age 0:01",1.76%
same,Epimer %,"[4]; T5, sample age 0:05",3.34%
same,Epimer %,"[4]; T10, sample age 0:10",5.47%
same,Epimer %,"[4]; T15, sample age 0:15",8.62%
same,Epimer %,"[4]; T25, sample age 0:25",13.2%
same,Epimer %,"[4]; T30, sample age 0:30",14.9%
same,Epimer %,"[4]; T35, sample age 0:35",16.2%
same,Epimer %,"[4]; T40, sample age 0:40",17.7%
same,Epimer %,"[4]; T45, sample age 0:45",18.9%
same,Epimer %,"[4]; T50, sample age 0:50",20.1%
same,Epimer %,"[4]; T55, sample age 0:55",21.0%
same,Epimer %,"[4]; T60, sample age 1:00",22.1%
same,Epimer %,"[4]; T70, sample age 1:10",24.3%
same,Epimer %,"[4]; T80, sample age 1:20",26.1%
